In patent US4268505A, “Pharmaceutical composition comprising a nitrogen-containing polysaccharide and an antibiotic agent, and a method of treating an infectious disease therewith” (priority 1979, dated 1981):

How the values were obtained:
[1] = test system: aminobenzylpenicillin-resistant strain of Enterobacter aerogenes; test: Therapeutical treatment of mice infected with aminobenzylpenicillin-resistant Enterobacter aerogenes (Example 13); assay type: in vivo, male ICR-JCL mice; settings: only aminobenzylpenicillin 100 mg/kg oral, 7th day
Description: After keeping the mice for 6 days under usual conditions, their rate of survival was determined on 7th day.

[2] = test system: aminobenzylpenicillin-resistant strain of Klebsiella pneumoniae; test: Therapeutical treatment of mice infected with aminobenzylpenicillin-resistant Klebsiella pneumoniae (Example 12); assay type: in vivo, male ICR-JCL mice; settings: only aminobenzylpenicillin 100 mg/kg oral, 7th day
Description: Similar experiments as in Example 9 were performed using the present substance obtained by the procedures described in Example 1.
An aminobenzylpenicillin-resistant strain of Klebsiella pneumoniae obtained by the procedures described in Example 1 was inoculated intraperitoneally into two groups (one group comprising 10 animals) of male ICR-JCL mice at a rate of 1×10^8 cells/mouse.
After 2 hours of the inoculation, 100 mg/kg of aminobenzyl penicillin was orally administered to each mouse of one group, and 1,000 mg/kg of the present substance simply admixtured with 100 mg/kg of aminobenzyl penicillin were orally administered to each mouse of another group. After keeping the mice under usual conditions, the rate of survival of each group was observed on 7th day with the results: […]

[3] = test system: Proteus mirabilis; test: Minimum growth inhibiting concentration, agar plate method; assay type: cell-based
Description: (§1) The drug-resistant strains of bacterial species were obtained in the manner described below according to the concentration gradient plate culture (see "Chemotherapeutics and Resistant Bacteria", 1970, By Chikara Watanabe, Asakura Shoten).
(§2) The agar plates with drug concentration gradient ranging from 10 to 100 μg/ml were prepared, and each strain of the bacterial species to be tested was streaked or smeared. These plates were kept at 37° C. for several days and the colony formed in the high concentration area was isolated and again similarly inoculated to the plates. Such operation was repeated several times to obtain the bacterial strains resistant to the respective drugs.
(§3) The drug sensitivity of the drug-resistant strains and that of the original strains (sensitive strains) were compared by way of the minimum growth inhibiting concentration (hereinafter abbreviated as MIC) according to the Standard Method of the Japanese Chemotherapeutical Association (see "Chemotherapy" Vol. 22, No. 6, 1126 (1974), by MIC Determination Method Reform Committee). More specifically, double diluted systems of each drug were prepared and they were mixed with the heart-infusion agar medium (Nippon Eiyo Kagaku Co., Ltd.) to form the agar plates. Then a loopful of each strain, which had been cultured at 37° C. in Trypto-soy bouillon (Nippon Eiyo Kagaku Co., Ltd.) for 18 hr. was smeared on each the plate, and after culturing for 18 hr. at 37° C., the growth of the strain on each plate was examined.
(§4) The amount of the present substance added is more than 10 μg/ml, preferably more than 100 μg/ml. The pH of the medium was maintained at 7.2±0.1 so that MIC would not be affected by pH of the medium.
(§5) Specimens of the drug-resistant bacterial strain were obtained according to the aforementioned concentration-gradient plate culture by using Staphylococcus aureus, Streptococcus faecalis, Escherichia coli, Salmonella enteritidis, Klebsiella pneumoniae and Pseudomonas aeruginosa.

[4] = test system: Escherichia coli; test: as above; assay type: cell-based; settings: for Minimum growth inhibiting concentration: strain resistant to the respective drug
Description: as §1, §2, §3
as §4, with “MIC has apparently been reduced to half the level or less before addition of the present substance as will be seen in Table 3 of EXAMPLE 1. The amount” for “The amount”
as §5, with “aeruginosa. The MICs of the original bacterial strains and those of the bacterial strains which have developed resistance to the respective antibiotics are summarized in Table 2.” for “aeruginosa.”

[5] = test system: cephaloridine-resistant strain of Proteus mirabilis; test: Therapeutical treatment of mice infected with cephaloridine-resistant Proteus mirabilis (Example 11); assay type: in vivo, male ICR-JCL mice; settings: only cephaloridine 80 mg/kg i.p., 7th day
Description: Similar experiments of therapeutical treatment as in Example 9 was performed by using the present substance obtained by the procedures described in Example 1.
A cephaloridine-resistant strain of Proteus mirabilis obtained by the procedures described in Example 1 was inoculated into male ICR-JCL mice comprising 20 animals at a rate of 5×10^8 cells/animal. After 2 hours of the inoculation 80 mg/kg of cephalotidine was administered intraperitoneally into each of 10 mice (of 20 mice), and 50 mg/kg of the present substance and 80 mg/kg of cephaloridine were almost simultaneously administered to each of another 10 mice (of 20 mice) intraperitoneally.
After keeping the animals under usual conditions for 6 days, their rate of survival were observed on 7th day to find: […]

[6] = strain resistant to the respective antibiotic (Table 2)

Row | Compound | rate of survival [1] [%] | rate of survival [2] [%] | Minimum growth inhibiting concentration (MIC) ([3]; original strain) [µg/mL] | Minimum growth inhibiting concentration (MIC) [3, 6] [µg/mL] | Minimum growth inhibiting concentration ([3]; strain resistant to the respective drug, present substance not added (Table 3)) [µg/mL] | Minimum growth inhibiting concentration (MIC) ([4]; original strain) [µg/mL] | Minimum growth inhibiting concentration (MIC) [4, 6] [µg/mL] | Minimum growth inhibiting concentration ([4]; present substance added at 10 μg/ml) [µg/mL] | Minimum growth inhibiting concentration ([4]; present substance not added (Table 3)) [µg/mL] | rate of survival [5] [%]
1 | CC1(C)S[C@@H]2[C@H](NC(=O)[C@H](N)c3ccccc3)C(=O)N2[C@H]1C(=O)O [AP, Aminobenzylpenicillin] | 70 | 40 | 0.8 | 25 | 25 | – | – | – | – | –
2 | O=C(Cc1cccs1)N[C@@H]1C(=O)N2C(C(=O)[O-])=C(C[n+]3ccccc3)CS[C@H]12 [CE, Cephaloridine] | – | – | – | – | – | 3.1 | 25 | 12.5 | 25 | 60
